Test: Ring-closing metathesis (C=C formation) of fluorous-tagged (FDIPES) terminal dienes with Hoveyda-Grubbs 2nd generation catalyst (typically 2 mol%, 1-5 mol%), usually with 1,4-benzoquinone (4-10 mol%); quench P(CH2OH)3/Et3N/silica
Settings: MTBE, 2.0 mM, 55.0 °C

SMILES: CC(C)[Si](CCC(F)(F)C(F)(F)C(F)(F)C(F)(F)C(F)(F)C(F)(F)C(F)(F)C(F)(F)F)(OC[C@H]1CC=CCOc2ccccc2COC(=O)N(S(=O)(=O)c2ccccc2[N+](=O)[O-])Cc2ccccc2CN1S(=O)(=O)c1ccccc1[N+](=O)[O-])C(C)C [25 (13+10; E/Z 65:35)]
- ring closure, isolated yield (from C=CCOc1ccccc1COC(=O)N(Cc1ccccc1CN([C@H](CC=C)CO[Si](CCC(F)(F)C(F)(F)C(F)(F)C(F)(F)C(F)(F)C(F)(F)C(F)(F)C(F)(F)F)(C(C)C)C(C)C)S(=O)(=O)c1ccccc1[N+](=O)[O-])S(=O)(=O)c1ccccc1[N+](=O)[O-], 17-membered ring, 24.0 h): 56%

SMILES: CC(C)[Si](CCC(F)(F)C(F)(F)C(F)(F)C(F)(F)C(F)(F)C(F)(F)C(F)(F)C(F)(F)F)(OC[C@H]1COCC=CCC[C@@H](O[Si](C)(C)C(C)(C)C)[C@H](C)C(=O)N(S(=O)(=O)c2ccccc2[N+](=O)[O-])Cc2cccc(c2)CN1S(=O)(=O)c1ccccc1[N+](=O)[O-])C(C)C [19 (from 18; Z 50% + E 40%)]
- ring closure, isolated yield (from C=CCC[C@@H](O[Si](C)(C)C(C)(C)C)[C@H](C)C(=O)N(Cc1cccc(CN([C@H](COCC=C)CO[Si](CCC(F)(F)C(F)(F)C(F)(F)C(F)(F)C(F)(F)C(F)(F)C(F)(F)C(F)(F)F)(C(C)C)C(C)C)S(=O)(=O)c2ccccc2[N+](=O)[O-])c1)S(=O)(=O)c1ccccc1[N+](=O)[O-], 18-membered ring, 48.0 h): 90%

SMILES: CC(C)[Si](CCC(F)(F)C(F)(F)C(F)(F)C(F)(F)C(F)(F)C(F)(F)C(F)(F)C(F)(F)F)(OC[C@H]1COCC=CCOc2ccccc2COC(=O)N(S(=O)(=O)c2ccccc2[N+](=O)[O-])Cc2cccc(c2)CN1S(=O)(=O)c1ccccc1[N+](=O)[O-])C(C)C [37 (17+10; E/Z 70:30)]
- ring closure, isolated yield (from C=CCOC[C@H](CO[Si](CCC(F)(F)C(F)(F)C(F)(F)C(F)(F)C(F)(F)C(F)(F)C(F)(F)C(F)(F)F)(C(C)C)C(C)C)N(Cc1cccc(CN(C(=O)OCc2ccccc2OCC=C)S(=O)(=O)c2ccccc2[N+](=O)[O-])c1)S(=O)(=O)c1ccccc1[N+](=O)[O-], 20-membered ring, 60.0 h): 78%

SMILES: CC(C)[Si](CCC(F)(F)C(F)(F)C(F)(F)C(F)(F)C(F)(F)C(F)(F)C(F)(F)C(F)(F)F)(OC[C@H]1CC=CCC[C@@H](O[Si](C)(C)C(C)(C)C)[C@H](C)C(=O)N(S(=O)(=O)c2ccccc2[N+](=O)[O-])CC2=CC=C(CN1S(=O)(=O)c1ccccc1[N+](=O)[O-])S2)C(C)C [3 (from 2; E/Z 65:35)]
- ring closure, isolated yield (from C=CCC[C@@H](O[Si](C)(C)C(C)(C)C)[C@H](C)C(=O)N(Cc1ccc(CN([C@H](CC=C)CO[Si](CCC(F)(F)C(F)(F)C(F)(F)C(F)(F)C(F)(F)C(F)(F)C(F)(F)C(F)(F)F)(C(C)C)C(C)C)S(=O)(=O)c2ccccc2[N+](=O)[O-])s1)S(=O)(=O)c1ccccc1[N+](=O)[O-], 16-membered ring, 16.0 h): 40%

SMILES: CC(C)[Si](CCC(F)(F)C(F)(F)C(F)(F)C(F)(F)C(F)(F)C(F)(F)C(F)(F)C(F)(F)F)(OC[C@H]1CC=CCOc2ccccc2COC(=O)N(S(=O)(=O)c2ccccc2[N+](=O)[O-])CC2=CC=C(CN1S(=O)(=O)c1ccccc1[N+](=O)[O-])S2)C(C)C [31 (15+10; E/Z >98:<2)]
- ring closure, isolated yield (from C=CCOc1ccccc1COC(=O)N(Cc1ccc(CN([C@H](CC=C)CO[Si](CCC(F)(F)C(F)(F)C(F)(F)C(F)(F)C(F)(F)C(F)(F)C(F)(F)C(F)(F)F)(C(C)C)C(C)C)S(=O)(=O)c2ccccc2[N+](=O)[O-])s1)S(=O)(=O)c1ccccc1[N+](=O)[O-], 18-membered ring, 16.0 h): 60%

SMILES: COc1ccc([C@H]2COCC=CCOC[C@H](CO[Si](CCC(F)(F)C(F)(F)C(F)(F)C(F)(F)C(F)(F)C(F)(F)C(F)(F)C(F)(F)F)(C(C)C)C(C)C)N(S(=O)(=O)c3ccccc3[N+](=O)[O-])Cc3cccc(c3)CN(S(=O)(=O)c3ccccc3[N+](=O)[O-])C(=O)OC2)c(OC)c1 [36 (17+9; E/Z 25:75)]
- ring closure, isolated yield (from C=CCOC[C@@H](COC(=O)N(Cc1cccc(CN([C@H](COCC=C)CO[Si](CCC(F)(F)C(F)(F)C(F)(F)C(F)(F)C(F)(F)C(F)(F)C(F)(F)C(F)(F)F)(C(C)C)C(C)C)S(=O)(=O)c2ccccc2[N+](=O)[O-])c1)S(=O)(=O)c1ccccc1[N+](=O)[O-])c1ccc(OC)cc1OC, 20-membered ring, 24.0 h): 76%

SMILES: CC(C)[Si](CCC(F)(F)C(F)(F)C(F)(F)C(F)(F)C(F)(F)C(F)(F)C(F)(F)C(F)(F)F)(OC[C@H]1CC=CCOc2ccccc2COC(=O)N(S(=O)(=O)c2ccccc2[N+](=O)[O-])Cc2cccc(c2)CN1S(=O)(=O)c1ccccc1[N+](=O)[O-])C(C)C (mixture of isomers) [28 (14+10; unchromatographed E/Z mixture)]
- ring closure, isolated yield (from C=CCOc1ccccc1COC(=O)N(Cc1cccc(CN([C@H](CC=C)CO[Si](CCC(F)(F)C(F)(F)C(F)(F)C(F)(F)C(F)(F)C(F)(F)C(F)(F)C(F)(F)F)(C(C)C)C(C)C)S(=O)(=O)c2ccccc2[N+](=O)[O-])c1)S(=O)(=O)c1ccccc1[N+](=O)[O-], 18-membered ring, 24.0 h): 88%

SMILES: COc1ccc([C@H]2COCC=CC[C@H](CO[Si](CCC(F)(F)C(F)(F)C(F)(F)C(F)(F)C(F)(F)C(F)(F)C(F)(F)C(F)(F)F)(C(C)C)C(C)C)N(S(=O)(=O)c3ccccc3[N+](=O)[O-])Cc3cccc(c3)CN(S(=O)(=O)c3ccccc3[N+](=O)[O-])C(=O)OC2)c(OC)c1 [27 (14+9; E/Z 60:40)]
- ring closure, isolated yield (from C=CCOC[C@@H](COC(=O)N(Cc1cccc(CN([C@H](CC=C)CO[Si](CCC(F)(F)C(F)(F)C(F)(F)C(F)(F)C(F)(F)C(F)(F)C(F)(F)C(F)(F)F)(C(C)C)C(C)C)S(=O)(=O)c2ccccc2[N+](=O)[O-])c1)S(=O)(=O)c1ccccc1[N+](=O)[O-])c1ccc(OC)cc1OC, 18-membered ring, 24.0 h): 56%

SMILES: CC(C)[Si](CCC(F)(F)C(F)(F)C(F)(F)C(F)(F)C(F)(F)C(F)(F)C(F)(F)C(F)(F)F)(OC[C@H]1CC=CCC[C@@H](O[Si](C)(C)C(C)(C)C)[C@H](C)CN(S(=O)(=O)C(F)(F)F)Cc2cccc(c2)CN1S(=O)(=O)c1ccccc1[N+](=O)[O-])C(C)C [29 (14+11; E/Z 15:85)]
- ring closure, isolated yield (from C=CCC[C@@H](O[Si](C)(C)C(C)(C)C)[C@H](C)CN(Cc1cccc(CN([C@H](CC=C)CO[Si](CCC(F)(F)C(F)(F)C(F)(F)C(F)(F)C(F)(F)C(F)(F)C(F)(F)C(F)(F)F)(C(C)C)C(C)C)S(=O)(=O)c2ccccc2[N+](=O)[O-])c1)S(=O)(=O)C(F)(F)F, 16-membered ring, 4.0 h): 78%

SMILES: COc1ccc([C@H]2COCC=CCOC[C@@H](CO[Si](CCC(F)(F)C(F)(F)C(F)(F)C(F)(F)C(F)(F)C(F)(F)C(F)(F)C(F)(F)F)(C(C)C)C(C)C)N(S(=O)(=O)c3ccccc3[N+](=O)[O-])Cc3ccccc3CN(S(=O)(=O)c3ccccc3[N+](=O)[O-])C(=O)OC2)c(OC)c1 [32 (16+9; E/Z >98:<2)]
- ring closure, isolated yield (from C=CCOC[C@@H](COC(=O)N(Cc1ccccc1CN([C@@H](COCC=C)CO[Si](CCC(F)(F)C(F)(F)C(F)(F)C(F)(F)C(F)(F)C(F)(F)C(F)(F)C(F)(F)F)(C(C)C)C(C)C)S(=O)(=O)c1ccccc1[N+](=O)[O-])S(=O)(=O)c1ccccc1[N+](=O)[O-])c1ccc(OC)cc1OC, 19-membered ring, 36.0 h): 88%

Source: article PMC5488202
